What was measured:
[1] = target: KRas G12V (Homo sapiens, UniProt P01116, G12V); assay: biochemical; settings: Binding to KRas (IC50 nM) G12V, TR-FRET displacement, KRas G12V
[2] = target: KRas G12D (Homo sapiens, UniProt P01116, G12D); assay: biochemical; settings: Binding to KRas (IC50 nM) G12D, TR-FRET displacement, KRas G12D
KRas G12D, sequence (P01116 1-169 isoform P01116-2 G12D): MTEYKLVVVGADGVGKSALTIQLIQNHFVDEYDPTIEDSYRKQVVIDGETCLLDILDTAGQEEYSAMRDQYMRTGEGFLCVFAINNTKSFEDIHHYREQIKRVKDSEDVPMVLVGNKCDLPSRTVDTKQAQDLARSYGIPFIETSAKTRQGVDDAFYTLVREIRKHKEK

KRas G12V, sequence (P01116 1-169 isoform P01116-2 G12V): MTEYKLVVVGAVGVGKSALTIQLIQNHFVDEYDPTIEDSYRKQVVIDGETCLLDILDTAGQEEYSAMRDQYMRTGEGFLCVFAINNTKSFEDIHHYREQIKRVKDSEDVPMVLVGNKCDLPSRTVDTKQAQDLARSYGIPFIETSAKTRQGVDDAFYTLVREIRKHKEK

Structure (SMILES) | IC50 [1] | IC50 [2]
CCc1cccc2cccc(N3CCc4c(nc(OCC5(CN(C)C)CC5)nc4NCCc4nncn4C(C)C)C3)c12 [Example 571, 2-((1-((dimethylamino)methyl)cyclopropyl)methoxy)-7-(8-ethylnaphthalen-1-yl)-N-(2-(4-isopropyl-4H-1,2,4-triazol-3-yl)ethyl)-5,6,7,8-tetrahydropyrido[3,4-d]pyrimidin-4-amine] | 6720 nM | 75700 nM
CCc1cccc2cccc(N3CCc4c(nc(OCC5(CN(C)C)CC5)nc4NCCc4nnc5ccccn45)C3)c12 [Example 572, N-(2-([1,2,4]triazolo[4,3-a]pyridin-3-yl)ethyl)-2-((1-((dimethylamino)methyl)cyclopropyl)methoxy)-7-(8-ethylnaphthalen-1-yl)-5,6,7,8-tetrahydropyrido[3,4-d]pyrimidin-4-amine] | 4560 nM | 89400 nM
CCc1cccc2cccc(N3CCc4c(nc(OCC5(CN(C)C)CC5)nc4NCC4(NC(=O)OC(C)(C)C)CCOC4)C3)c12 (stereo not shown) [Example 573, tert-butyl (3-(((2-((1-((dimethylamino)methyl)cyclopropyl)methoxy)-7-(8-ethylnaphthalen-1-yl)-5,6,7,8-tetrahydropyrido[3,4-d]pyrimidin-4-yl)amino)methyl)tetrahydrofuran-3-yl)carbamate] | 7840 nM | 96000 nM
CCc1cccc2cccc(N3CCc4c(nc(OCC5(CN(C)C)CC5)nc4N(C)Cc4nncn4C)C3)c12 [Example 668, 2-((1-((dimethylamino)methyl)cyclopropyl)methoxy)-7-(8-ethylnaphthalen-1-yl)-N-methyl-N-((4-methyl-4H-1,2,4-triazol-3-yl)methyl)-5,6,7,8-tetrahydropyrido[3,4-d]pyrimidin-4-amine] | 2050 nM | 8990 nM
CCc1cccc2cccc(N3CCc4c(nc(OCC5(CN(C)C)CC5)nc4N4CCCOCC4)C3)c12 [Example 669, 1-(1-(((7-(8-ethylnaphthalen-1-yl)-4-(1,4-oxazepan-4-yl)-5,6,7,8-tetrahydropyrido[3,4-d]pyrimidin-2-yl)oxy)methyl)cyclopropyl)-N,N-dimethylmethanamine] | 199 nM | 190 nM
CCc1cccc2cccc(N3CCc4c(nc(OCC5(CN(C)C)CC5)nc4N4CCOCC(CC)C4)C3)c12 (stereo not shown) [Example 672, 1-(1-(((4-(6-ethyl-1,4-oxazepan-4-yl)-7-(8-ethylnaphthalen-1-yl)-5,6,7,8-tetrahydropyrido[3,4-d]pyrimidin-2-yl)oxy)methyl)cyclopropyl)-N,N-dimethylmethanamine] | 1440 nM | 1280 nM
CCc1cccc2cccc(N3CCc4c(nc(OCC5(CN(C)C)CC5)nc4NCc4ncn(C(C)C)n4)C3)c12 [Example 673, 2-((1-((dimethylamino)methyl)cyclopropyl)methoxy)-7-(8-ethylnaphthalen-1-yl)-N-((1-isopropyl-1H-1,2,4-triazol-3-yl)methyl)-5,6,7,8-tetrahydropyrido[3,4-d]pyrimidin-4-amine] | 2440 nM | 8420 nM
CCc1cccc2cccc(N3CCc4c(nc(OCC5(CN(C)C)CC5)nc4N4CCOCC(CO)C4)C3)c12 (stereo not shown) [Example 678, (4-(2-((1-((dimethylamino)methyl)cyclopropyl)methoxy)-7-(8-ethylnaphthalen-1-yl)-5,6,7,8-tetrahydropyrido[3,4-d]pyrimidin-4-yl)-1,4-oxazepan-6-yl)methanol] | 210 nM | 197 nM
CCc1cccc2cccc(N3CCc4c(nc(OCC5(CN(C)C)CC5)nc4NCc4nnc5n4CCCCC5)C3)c12 [Example 686, 2-((1-((dimethylamino)methyl)cyclopropyl)methoxy)-7-(8-ethylnaphthalen-1-yl)-N-((6,7,8,9-tetrahydro-5H-[1,2,4]triazolo[4,3-a]azepin-3-yl)methyl)-5,6,7,8-tetrahydropyrido[3,4-d]pyrimidin-4-amine] | 4520 nM | 5250 nM
CCc1cccc2cccc(N3CCc4c(nc(OCC5(CN(C)C)CC5)nc4NCc4nnc(C5CCOC5)[nH]4)C3)c12 (stereo not shown) [Example 691, 2-((1-((dimethylamino)methyl)cyclopropyl)methoxy)-7-(8-ethylnaphthalen-1-yl)-N-((5-(tetrahydrofuran-3-yl)-4H-1,2,4-triazol-3-yl)methyl)-5,6,7,8-tetrahydropyrido[3,4-d]pyrimidin-4-amine] | 5300 nM | 7300 nM

Next, values leading:

IC50 [1] | IC50 [2] | Structure (SMILES)
1420 nM | 2310 nM | CCc1cccc2cccc(N3CCc4c(nc(OCC5(CN(C)C)CC5)nc4N4CCCOC(CC)C4)C3)c12 (stereo not shown) [Example 663, 1-(1-(((4-(2-ethyl-1,4-oxazepan-4-yl)-7-(8-ethylnaphthalen-1-yl)-5,6,7,8-tetrahydropyrido[3,4-d]pyrimidin-2-yl)oxy)methyl)cyclopropyl)-N,N-dimethylmethanamine]
317 nM | 254 nM | CCc1cccc2cccc(N3CCc4c(nc(OCC5(CN(C)C)CC5)nc4N4CCOCC(C)C4)C3)c12 (stereo not shown) [Example 664, 1-(1-(((7-(8-ethylnaphthalen-1-yl)-4-(6-methyl-1,4-oxazepan-4-yl)-5,6,7,8-tetrahydropyrido[3,4-d]pyrimidin-2-yl)oxy)methyl)cyclopropyl)-N,N-dimethylmethanamine]
238 nM | 340 nM | CCc1cccc2cccc(N3CCc4c(nc(OCC5(CN(C)C)CC5)nc4N4CCOCC(O)C4)C3)c12 (stereo not shown) [Example 666, 4-(2-((1-((dimethylamino)methyl)cyclopropyl)methoxy)-7-(8-ethylnaphthalen-1-yl)-5,6,7,8-tetrahydropyrido[3,4-d]pyrimidin-4-yl)-1,4-oxazepan-6-ol]
243 nM | 223 nM | CCc1cccc2cccc(N3CCc4c(nc(OCC5(CN(C)C)CC5)nc4N4CCCOC(C)C4)C3)c12 (stereo not shown) [Example 667, 1-(1-(((7-(8-ethylnaphthalen-1-yl)-4-(2-methyl-1,4-oxazepan-4-yl)-5,6,7,8-tetrahydropyrido[3,4-d]pyrimidin-2-yl)oxy)methyl)cyclopropyl)-N,N-dimethylmethanamine]
3190 nM | 5890 nM | CCc1cccc2cccc(N3CCc4c(nc(OCC5(CN(C)C)CC5)nc4N4CCCC(c5c[nH]nn5)C4)C3)c12 (stereo not shown) [Example 679, 1-(1-(((4-(3-(1H-1,2,3-triazol-4-yl)piperidin-1-yl)-7-(8-ethylnaphthalen-1-yl)-5,6,7,8-tetrahydropyrido[3,4-d]pyrimidin-2-yl)oxy)methyl)cyclopropyl)-N,N-dimethylmethanamine]
3130 nM | 5490 nM | CCc1cccc2cccc(N3CCc4c(nc(OCC5(CN(C)C)CC5)nc4N4CCCC(c5c[nH]cn5)C4)C3)c12 (stereo not shown) [Example 680, 1-(1-(((4-(3-(1H-imidazol-4-yl)piperidin-1-yl)-7-(8-ethylnaphthalen-1-yl)-5,6,7,8-tetrahydropyrido[3,4-d]pyrimidin-2-yl)oxy)methyl)cyclopropyl)-N,N-dimethylmethanamine]
3220 nM | 3830 nM | CCc1cccc2cccc(N3CCc4c(nc(OCC5(CN(C)C)CC5)nc4N4CCCC(c5ccon5)C4)C3)c12 (stereo not shown) [Example 681, 1-(1-(((7-(8-ethylnaphthalen-1-yl)-4-(3-(isoxazol-3-yl)piperidin-1-yl)-5,6,7,8-tetrahydropyrido[3,4-d]pyrimidin-2-yl)oxy)methyl)cyclopropyl)-N,N-dimethylmethanamine]
1760 nM | 1610 nM | CCc1cccc2cccc(N3CCc4c(nc(OCC5(CN(C)C)CC5)nc4N4CCCC(n5cccn5)C4)C3)c12 (stereo not shown) [Example 682, 1-(1-(((4-(3-(1H-pyrazol-1-yl)piperidin-1-yl)-7-(8-ethylnaphthalen-1-yl)-5,6,7,8-tetrahydropyrido[3,4-d]pyrimidin-2-yl)oxy)methyl)cyclopropyl)-N,N-dimethylmethanamine]
1860 nM | 1650 nM | CCc1cccc2cccc(N3CCc4c(nc(OCC5(CN(C)C)CC5)nc4N4CCCC(c5ncc[nH]5)C4)C3)c12 (stereo not shown) [Example 685, 1-(1-(((4-(3-(1H-imidazol-2-yl)piperidin-1-yl)-7-(8-ethylnaphthalen-1-yl)-5,6,7,8-tetrahydropyrido[3,4-d]pyrimidin-2-yl)oxy)methyl)cyclopropyl)-N,N-dimethylmethanamine]
6230 nM | 10800 nM | CCc1cccc2cccc(N3CCc4c(nc(OCC5(CN(C)C)CC5)nc4N4CCCC(c5nc(C)c(C)[nH]5)C4)C3)c12 (stereo not shown) [Example 687, 1-(1-(((4-(3-(4,5-dimethyl-1H-imidazol-2-yl)piperidin-1-yl)-7-(8-ethylnaphthalen-1-yl)-5,6,7,8-tetrahydropyrido[3,4-d]pyrimidin-2-yl)oxy)methyl)cyclopropyl)-N,N-dimethylmethanamine]
4310 nM | 7420 nM | CCc1cccc2cccc(N3CCc4c(nc(OCC5(CN(C)C)CC5)nc4N4CCCC(c5ccn(C)n5)C4)C3)c12 (stereo not shown) [Example 689, 1-(1-(((7-(8-ethylnaphthalen-1-yl)-4-(3-(1-methyl-1H-pyrazol-3-yl)piperidin-1-yl)-5,6,7,8-tetrahydropyrido[3,4-d]pyrimidin-2-yl)oxy)methyl)cyclopropyl)-N,N-dimethylmethanamine]
1360 nM | 5440 nM | CCc1cccc2cccc(N3CCc4c(nc(OCC5(CN(C)C)CC5)nc4N4CCCC(c5nc(=O)[nH][nH]5)C4)C3)c12 (stereo not shown) [Example 690, 5-(1-(2-((1-((dimethylamino)methyl)cyclopropyl)methoxy)-7-(8-ethylnaphthalen-1-yl)-5,6,7,8-tetrahydropyrido[3,4-d]pyrimidin-4-yl)piperidin-3-yl)-1,2-dihydro-3H-1,2,4-triazol-3-one]
8850 nM | 16100 nM | CCc1cccc2cccc(N3CCc4c(nc(OCC5(CN(C)C)CC5)nc4N4CCCC(c5nccn5C)C4)C3)c12 (stereo not shown) [Example 692, 1-(1-(((7-(8-ethylnaphthalen-1-yl)-4-(3-(1-methyl-1H-imidazol-2-yl)piperidin-1-yl)-5,6,7,8-tetrahydropyrido[3,4-d]pyrimidin-2-yl)oxy)methyl)cyclopropyl)-N,N-dimethylmethanamine]
